Test results published in patent publication US10316056B2, “Chemical compounds and use thereof for improving muscular quality” (BIOPHYTIS, priority 2014, dated 2019).

Key:
[1] = test system: myostatin gene expression in C2C12 cells; experiment: Inhibition of myostatin expression in C2C12 cells (qPCR); assay type: cell-based; details: Mus musculus, percentage myostatin gene expression in cells in contact with the compounds related to control cells, C2C12, 6 h
Method: After several experiments in which the C2C12 cells differentiated into myotubes were incubated in the presence of IGF-1 or 20E for 2 h 30 or 6 h, two screening tests were developed. Thus, the phosphorylation of the S6 protein kinase and the expression of the myostatin gene were studied in order to determine their modulation by a growth hormone or an ecdysone and to characterize these modulations from a statistical point of view. The C2C12 myoblast cells (ATCC CRL-1772) are seeded into 24-well plates at a density of 30 000 cells per well and cultured in a DMEM medium containing glucose in a proportion of 4.5 g/l and supplemented with fetal calf serum (10%) and with antibiotics (penicillin and streptomycin). Forty-eight hours later, the myoblasts are induced to differentiate by partial serum depletion (2% instead of 10%) for 5 days. The cells are then placed in a medium which is glucose-depleted (DMEM containing 1 g/l of glucose) and serum-free in the presence of the test molecules or of the references (100 ng/ml IGF-1 or 10 μ[…]) for 6 h. At the end of the experiment, the messenger RNAs (mRNAs) are extracted using the conventional methodology based on phenol and chloroform. Briefly, the cells are lysed in a Trizol solution (Sigma T9424) containing a strong acid and phenol. The mRNAs are separated from the proteins by addition of chloroform and then centrifugation. They are then precipitated from isopropanol and then suspended at a concentration of 1 μg/μl in an […] ultrapure water. 1 μg of mRNA is then converted by reverse transcription into complementary DNA by the AMV enzyme in the presence of a primer and of a mixture of nucleotides according to the protocol given by the supplier (Applied Biosystems 4368814). […] The qPCRs are carried out on a 7900HT Fast real-Time PCR detection system (Applied Biosystems). The programming conditions are standard and consist of 1 cycle at 95° C. for 15 min, followed by 40 cycles at 95° C. for 15 s and at 60° C. for 1 min and the program ends with a melt curve step between 60° C. and 95° C. […] Fluorescent probes bind to the double-stranded DNA and are fluorescent only once bound to the DNA. A fluorescence threshold is established by the machine's program. When the amount of DNA allows the fluorescent probe to exceed this threshold, a PCR cycle number, called “Ct” for “Cycle Threshold”, is obtained. It is this value which forms the basis of the calculations to quantify the DNA relatively. A ratio R is established between the amount of starting DNA of a sample and that of a control, which has not undergone treatment (i.e. […] R=2^-ΔΔCt).

[2] = test system: S6 kinase (S6K1) phosphorylation in C2C12 cells; experiment: Phosphorylation of the S6 kinase in C2C12 cells (ELISA pS6K T389), protein synthesis; assay type: cell-based, mouse; details: Mus musculus, C2C12, 2 h; for activity at 10 µM: read-out: Protein synthesis (percentage increase in S6K phosphorylation in muscle cells); for activity: test compounds and 20E reference (10 μM), read-out: S6K1 phosphorylation level
Method: After several experiments in which the C2C12 cells differentiated into myotubes were incubated in the presence of IGF-1 or 20E for 2 h 30 or 6 h, two screening tests were developed. Thus, the phosphorylation of the S6 protein kinase and the expression of the myostatin gene were studied in order to determine their modulation by a growth hormone or an ecdysone and to characterize these modulations from a statistical point of view.
The C2C12 myoblast cells (ATCC CRL-1772) are seeded into 6-well plates at a density of 170 000 cells per well and cultured in a DMEM medium containing glucose in a proportion of 4.5 g/l and supplemented with fetal calf serum (10%) and with antibiotics (penicillin and streptomycin). Forty-eight hours later, the myoblasts are induced to differentiate by partial serum depletion (2% instead of 10%) for 5 days. The cells are then placed in a medium which is glucose-depleted (DMEM containing 1 g/l of glucose) and serum-free in the presence of the test molecules or of the references (100 ng/ml IGF-1 or 10 μM 20E) for 2 h. At the end of the experiment, the cells are lysed in a commercial lysis buffer (Invitrogen FNN0011) supplemented with a commercial mixture of anti-proteases (Roche 05056489001). After centrifugation, the cytoplasmic fraction containing the soluble proteins is kept and the protein concentration is determined using a commercial kit (Biorad 500-0114), the principle of which is composed of assaying by the Lowry method. The assaying of the S6 kinase phosphorylation is carried out using a commercial ELISA (Enzyme Linked ImmunoSorbent Assay) kit (Cell signaling 7063). Briefly, 50 μg of protein lysate are deposited in the wells of a 96-well microplate and incubated overnight at 4° C. with the solution of antigen specific for the pS6 kinase threonine 389 antibody. The binding of the antigen to the bottom of the wells is done electrostatically. The solution of antibody to be assayed (pS6K T389) is then incubated at 37° C. in the wells for 2 hours. The antibodies bind specifically to the antigen. The wells are then washed with washing buffer in order to remove the antigen-specific primary antibodies to be assayed which are in excess. The third step consists in binding the detection antibody. The solution of detection antibodies is incubated at 37° C. in the wells for 1 hour. The wells are then washed in order to remove the excess detection antibodies. It should be noted that the detection antibodies are coupled to an enzyme which, in the presence of its substrate, converts it into a reaction product that can be detected and measured by virtue of the appearance of a coloration. […] The appearance of a blue coloration in the substrate indicates the presence of the antibody to be assayed. In order to prevent any saturation phenomenon, a stop solution (generally containing […]) is added and brings about a change in coloration, which goes from blue to yellow. The strength thereof is proportional to the amount of enzyme present and thus to the concentration of antibody sought. The strength of the signal is measured using spectrophotometry at a wavelength of 450 nm.

Row | SMILES | mrna remaining at 10 µM [1] [%] | activity at 10 µM [2] [%] | activity [2] [%]
1 | C=CCCC(=O)N(CCOC)C(C)[C@H]1CC[C@@]2(O)C3=CC(=O)[C@@H]4C[C@@H](O)[C@@H](O)C[C@]4(C)C3CC[C@]12C (stereo partly drawn) [Compound 52, N-(2-methoxyethyl)-N-[1-[(2S,3R,5R,10R,13R,14S,17S)-2,3,14-trihydroxy-10,13-dimethyl-6-oxo-2,3,4,5,9,11,12,15,16,17-decahydro-1H-cyclopenta[a]phenanthren-17-yl]ethyl]pent-4-enamide] | < 70 | 110 to 129 | ~120
2 | CC([C@H]1CC[C@@]2(O)C3=CC(=O)[C@@H]4C[C@@H](O)[C@@H](O)C[C@]4(C)C3CC[C@]12C)N(CC(F)F)C(=O)c1ccco1 (stereo partly drawn) [Compound 67, N-(2,2-difluoroethyl)-N-[1-[(2S,3R,5R,10R,13R,14S,17S)-2,3,14-trihydroxy-10,13-dimethyl-6-oxo-2,3,4,5,9,11,12,15,16,17-decahydro-1H-cyclopenta[a]phenanthren-17-yl]ethyl]furan-2-carboxamide] | < 70 | > 130 | 130 to 140
3 | COCC(=O)N(CC1CCCO1)C(C)[C@H]1CC[C@@]2(O)C3=CC(=O)[C@@H]4C[C@@H](O)[C@@H](O)C[C@]4(C)C3CC[C@]12C (stereo partly drawn) [Compound 62, 2-methoxy-N-(tetrahydrofuran-2-ylmethyl)-N-[1-[(2S,3R,5R,10R,13R,14S,17S)-2,3,14-trihydroxy-10,13-dimethyl-6-oxo-2,3,4,5,9,11,12,15,16,17-decahydro-1H-cyclopenta[a]phenanthren-17-yl]ethyl]acetamide] | < 70 | > 130 | 130 to 140
4 | C[C@]12C[C@H](O)[C@H](O)C[C@H]1C(=O)C=C1C2CC[C@]2(C)[C@@H](C(=O)CN3CCOCC3)CC[C@@]12O (stereo partly drawn) [Compound 81, (2S,3R,5R,10R,13R,14S,17S)-2,3,14-trihydroxy-10,13-dimethyl-17-(2-morpholinoacetyl)-2,3,4,5,9,11,12,15,16,17-decahydro-1H-cyclopenta[a]phenanthren-6-one] | < 70 | 110 to 129 | ~120
5 | CCOC(=O)CSCC(=O)[C@H]1CC[C@@]2(O)C3=CC(=O)[C@@H]4C[C@@H](O)[C@@H](O)C[C@]4(C)C3CC[C@]12C (stereo partly drawn) [Compound 92, Ethyl 2-[2-oxo-2-[(2S,3R,5R,10R,13R,14S,17S)-2,3,14-trihydroxy-10,13-dimethyl-6-oxo-2,3,4,5,9,11,12,15,16,17-decahydro-1H-cyclopenta[a]phenanthren-17-yl]ethyl]sulfanylacetate] | < 70 | 110 to 129 | ~120
6 | CC(NCc1cccnc1)[C@H]1CC[C@@]2(O)C3=CC(=O)[C@@H]4C[C@@H](O)[C@@H](O)C[C@]4(C)C3CC[C@]12C (stereo partly drawn) [Compound 43, (2S,3R,5R,10R,13R,14S,17S)-2,3,14-trihydroxy-10,13-dimethyl-17-[1-(3-pyridylmethylamino)ethyl]-2,3,4,5,9,11,12,15,16,17-decahydro-1H-cyclopenta[a]phenanthren-6-one] | < 70 | 110 to 129 | ~120
7 | CC([C@H]1CC[C@@]2(O)C3=CC(=O)[C@@H]4C[C@@H](O)[C@@H](O)C[C@]4(C)C3CC[C@]12C)N(CC1CCCO1)C(=O)c1ccco1 (stereo partly drawn) [Compound 63, N-(tetrahydrofuran-2-ylmethyl)-N-[1-[(2S,3R,5R,10R,13R,14S,17S)-2,3,14-trihydroxy-10,13-dimethyl-6-oxo-2,3,4,5,9,11,12,15,16,17-decahydro-1H-cyclopenta[a]phenanthren-17-yl]ethyl]furan-2-carboxamide] | < 70 | 110 to 129 | ~120
8 | C[C@]12C[C@H](O)[C@H](O)C[C@H]1C(=O)C=C1C2CC[C@]2(C)[C@@H](C(=O)CN3CCC(O)C3)CC[C@@]12O (stereo partly drawn) [Compound 86, (2S,3R,5R,10R,13R,14S,17S)-2,3,14-trihydroxy-17-[2-(3-hydroxypyrrolidin-1-yl)acetyl]-10,13-dimethyl-2,3,4,5,9,11,12,15,16,17-decahydro-1H-cyclopenta[a]phenanthren-6-one] | < 70 | > 130 | 130 to 140
9 | COCCN(C)C(C)[C@H]1CC[C@@]2(O)C3=CC(=O)[C@@H]4C[C@@H](O)[C@@H](O)C[C@]4(C)C3CC[C@]12C (stereo partly drawn) [Compound 76, (2S,3R,5R,10R,13R,14S,17S)-2,3,14-trihydroxy-17-[1-(2-methoxyethyl(methyl)amino)ethyl]-10,13-dimethyl-2,3,4,5,9,11,12,15,16,17-decahydro-1H-cyclopenta[a]phenanthren-6-one] | < 70 | 110 to 129 | ~120
10 | C[C@]12C[C@H](O)[C@H](O)C[C@H]1C(=O)C=C1C2CC[C@]2(C)[C@@H](C(=O)CSCCO)CC[C@@]12O (stereo partly drawn) [Compound 94, (2S,3R,5R,10R,13R,14S,17S)-2,3,14-trihydroxy-17-[2-(2-hydroxyethylsulfanyl)acetyl]-10,13-dimethyl-2,3,4,5,9,11,12,15,16,17-decahydro-1H-cyclopenta[a]phenanthren-6-one] | < 70 | > 130 | 130 to 140
11 | COCCN(C(=O)COC)C(C)[C@H]1CC[C@@]2(O)C3=CC(=O)[C@@H]4C[C@@H](O)[C@@H](O)C[C@]4(C)C3CC[C@]12C (stereo partly drawn) [Compound 41, 2-methoxy-N-(2-methoxyethyl)-N-[1-[(2S,3R,5R,10R,13R,14S,17S)-2,3,14-trihydroxy-10,13-dimethyl-6-oxo-2,3,4,5,9,11,12,15,16,17-decahydro-1H-cyclopenta[a]phenanthren-17-yl]ethyl]acetamide] | < 70 | 110 to 129 | ~120
12 | COCCNC(C)[C@H]1CC[C@@]2(O)C3=CC(=O)[C@@H]4C[C@@H](O)[C@@H](O)C[C@]4(C)C3CC[C@]12C (stereo partly drawn) [Compound 42, (2S,3R,5R,10R,13R,14S,17S)-2,3,14-trihydroxy-17-[1-(2-methoxyethylamino)ethyl]-10,13-dimethyl-2,3,4,5,9,11,12,15,16,17-decahydro-1H-cyclopenta[a]phenanthren-6-one] |  | > 130 | 130 to 140
